In patent US10913727B2, “Modulators of the integrated stress pathway” (Calico Life Sciences LLC, priority 2016, dated 2021) one finds EC50 data, which are given here for 30 compounds.

Molecules are shown by their SMILES. Some results are limits rather than exact numbers.

The test deals with HEK293T cells carrying the ATF4 luciferase reporter. In words: ATF4-Luc assay, in vitro model of Vanishing Cell White Matter Disease (VWMD). The class given is cell-based. To be noted: Homo sapiens, HEK-293T, 1 μg/mL tunicamycin, 7 hours, One Glo luminescence. As for the experimental part:
In order to test exemplary compounds of the invention in a cellular context, a stable VWMD cell line was first constructed. The ATF4 reporter was prepared by fusing the human full-length ATF4 5′-UTR (NCBI Accession No. BC022088.2) in front of the firefly luciferase (FLuc) coding sequence lacking the initiator methionine as described in Sidrauski et al (eLife 2013). The construct was used to produce recombinant retroviruses using standard methods and the resulting viral supernatant was used to transduce HEK293T cells, which were then subsequently selected with puromycin to generate a stable cell line.
HEK293T cells carrying the ATF4 luciferase reporter were plated on polylysine coated 384-well plates (Greiner Bio-one) at 30,000 cells per well. Cells were treated the next day with 1 μg/mL tunicamycin and 200 nM of a compound of Formula (I) for 7 hours. Luminescence was measured using One Glo (Promega) as specified by the manufacturer. Cells were maintained in DMEM with L-glutamine supplemented with 10% heat-inactivated FBS (Gibco) and Antibiotic-Antimycotic solution (Gibco).
Table 2 below summarizes the EC50 data obtained using the ATF4-Luc assay for exemplary compounds of the invention.
In general, EC50 refers to the concentration needed to bring the measured effect to its halfway point. Turning to `O=C(COc1ccc(Cl)c(F)c1)NC12CCC(NC(=O)c3cscn3)(CC1)C(O)C2` (stereo not drawn) [Compound 212, N-{4-[2-(4-chloro-3-fluorophenoxy)acetamido]-2-hydroxybicyclo[2.2.2]octan-1-yl}-1,3-thiazole-4-carboxamide], the half-maximal effective concentration (EC50) lay within 250 to 1000 nM.
For `CCOC(=O)c1cc(C(=O)NC23CC(NC(=O)COc4ccc(Cl)c(F)c4)(C2)C3)ccn1` [Compound 279, ethyl 4-({3-[2-(4-chloro-3-fluorophenoxy)acetamido]bicyclo[1.1.1]pentan-1-yl}carbamoyl)pyridine-2-carboxylate] the value was 250 to 1000 nM.
For `O=C(COc1ccc(Cl)c(F)c1)NC12CCC(Nc3cnc(C(F)(F)F)cn3)(CC1)CC2` [Compound 100, 2-(4-chloro-3-fluorophenoxy)-N-(4-{[5-(trifluoromethyl)pyrazin-2-yl]amino}bicyclo[2.2.2]octan-1-yl)acetamide] the value was 250 to 1000 nM.
For `O=C(COc1ccc(Cl)c(F)c1)NC12CC(NC(=O)c3cn[nH]c3)(C1)C2` [Compound 310, N-{3-[2-(4-chloro-3-fluorophenoxy)acetamido]bicyclo[1.1.1]pentan-1-yl}-1H-pyrazole-4-carboxamide] the value was over 2000 nM.
Consider `O=C(COc1ccc(Cl)c(F)c1)NC12CC(NC(=O)c3cnc4cccnn34)(C1)C2` [Compound 760, N-{3-[2-(4-chloro-3-fluorophenoxy)acetamido]bicyclo[1.1.1]pentan-1-yl}imidazo[1,2-b]pyridazine-3-carboxamide], for which the EC50 is over 2000 nM.
As for `CCc1ccc(C(=O)NC23CCC(NC(=O)COc4ccc(Cl)c(F)c4)(CC2)[C@@H](O)C3)nc1` [Compound 754, N-{(3S)-4-[2-(4-chloro-3-fluorophenoxy)acetamido]-3-hydroxybicyclo[2.2.2]octan-1-yl}-5-ethylpyridine-2-carboxamide], the figure is under 50 nM.
As for `Cc1cnc(C(=O)NC23CC(NC(=O)COc4ccc(Cl)c(F)c4)(C2)C3)nc1` [Compound 268, N-{3-[2-(4-chloro-3-fluorophenoxy)acetamido]bicyclo[1.1.1]pentan-1-yl}-5-methylpyrimidine-2-carboxamide], the figure is 50 to 250 nM; as for `Cn1cc2ccnc(NC34CC(NC(=O)COc5ccc(Cl)c(F)c5)(C3)C4)c2n1` [Compound 493, 2-(4-chloro-3-fluorophenoxy)-N-{3-[(2-methyl-2H-pyrazolo[3,4-c]pyridin-7-yl)amino]bicyclo[1.1.1]pentan-1-yl}acetamide], 50 to 250 nM.
As for `COc1cc(C(=O)NC23CC(NC(=O)COc4ccc(Cl)c(F)c4)(C2)C3)n(C)n1` [Compound 651, N-{3-[2-(4-chloro-3-fluorophenoxy)acetamido]bicyclo[1.1.1]pentan-1-yl}-3-methoxy-1-methyl-1H-pyrazole-5-carboxamide], the figure is 50 to 250 nM; as for `O=C(COc1ccc(Cl)c(F)c1)NC12CCC(NC(=O)c3cccc(N4CCOCC4)n3)(CC1)CC2O` (stereo not drawn) [Compound 942, N-{4-[2-(4-chloro-3-fluorophenoxy)acetamido]-3-hydroxybicyclo[2.2.2]octan-1-yl}-6-(morpholin-4-yl)pyridine-2-carboxamide], 1000 to 2000 nM.
Regarding `CCc1cnc(C(=O)NC23CC(NC(=O)COc4ccc(Cl)c(F)c4)(C2)C3)cn1` [Compound 708, N-{3-[2-(4-chloro-3-fluorophenoxy)acetamido]bicyclo[1.1.1]pentan-1-yl}-5-ethylpyrazine-2-carboxamide], the EC50 lay in the range of 50 to 250 nM.
On to `CC(C)(C)c1cnc(C(=O)NC23CCC(NC(=O)COc4ccc(Cl)c(F)c4)(CC2)[C@@H](O)C3)cn1` [Compound 705, 5-tert-butyl-N-{(3S)-4-[2-(4-chloro-3-fluorophenoxy)acetamido]-3-hydroxybicyclo[2.2.2]octan-1-yl}pyrazine-2-carboxamide], for which the EC50 was over 2000 nM.
For `CCCn1ccc(C(=O)NC23CC(NC(=O)COc4ccc(Cl)c(F)c4)(C2)C3)n1` [Compound 343, N-{3-[2-(4-chloro-3-fluorophenoxy)acetamido]bicyclo[1.1.1]pentan-1-yl}-1-propyl-1H-pyrazole-3-carboxamide] the value was 50 to 250 nM.
For `O=C(COc1ccc(Cl)c(F)c1)NC12CC(NC(=O)c3cc(C(F)F)no3)(C1)C2` [Compound 654, N-{3-[2-(4-chloro-3-fluorophenoxy)acetamido]bicyclo[1.1.1]pentan-1-yl}-3-(difluoromethyl)-1,2-oxazole-5-carboxamide] the value was 50 to 250 nM; for `O=C(COc1ccc(Cl)c(F)c1)NC12CC(NC(=O)c3ccc(OC4COC4)nc3)(C1)C2` [Compound 237, N-{3-[2-(4-chloro-3-fluorophenoxy)acetamido]bicyclo[1.1.1]pentan-1-yl}-6-[(oxetan-3-yl)oxy]pyridine-3-carboxamide], 250 to 1000 nM.
For `O=C(COc1ccc(Cl)c(F)c1)NC12CC(NC(=O)c3ccccc3-n3cncn3)(C1)C2` [Compound 862, N-{3-[2-(4-chloro-3-fluorophenoxy)acetamido]bicyclo[1.1.1]pentan-1-yl}-2-(1H-1,2,4-triazol-1-yl)benzamide] the value was over 2000 nM.
As to `O=C(COc1ccc(Cl)c(F)c1)NC12CCC(NC(=O)c3cccc(O)n3)(CC1)CC2O` (stereo not drawn) [Compound 943, N-{4-[2-(4-chloro-3-fluorophenoxy)acetamido]-3-hydroxybicyclo[2.2.2]octan-1-yl}-6-hydroxypyridine-2-carboxamide], the EC50 lay in the range of 50 to 250 nM.
For `CC(=O)NCc1ccnc(C(=O)NC23CC(NC(=O)COc4ccc(Cl)c(F)c4)(C2)C3)c1` [Compound 194, 4-(acetamidomethyl)-N-{3-[2-(4-chloro-3-fluorophenoxy)acetamido]bicyclo[1.1.1]pentan-1-yl}pyridine-2-carboxamide] the value was 50 to 250 nM.
As for `O=C1COc2cc(C(=O)NC34CC(NC(=O)COc5ccc(Cl)c(F)c5)(C3)C4)ccc2N1` [Compound 794, N-{3-[2-(4-chloro-3-fluorophenoxy)acetamido]bicyclo[1.1.1]pentan-1-yl}-3-oxo-3,4-dihydro-2H-1,4-benzoxazine-7-carboxamide], the figure is over 2000 nM.
For `Cc1cc(C(=O)NC23CC(NC(=O)COc4ccc(Cl)c(Cl)c4)(C2)C3)cnc1C` [Compound 693, N-{3-[2-(3,4-dichlorophenoxy)acetamido]bicyclo[1.1.1]pentan-1-yl}-5,6-dimethylpyridine-3-carboxamide] the value was 250 to 1000 nM; for `O=C(COc1ccc(Cl)c(F)c1)NC12CC(NC(=O)c3ccc4ccccc4n3)(C1)C2` [Compound 586, N-{3-[2-(4-chloro-3-fluorophenoxy)acetamido]bicyclo[1.1.1]pentan-1-yl}quinoline-2-carboxamide], under 50 nM.
For `Cn1cc(-c2cc(C(=O)NC34CC(NC(=O)COc5ccc(Cl)c(F)c5)(C3)C4)on2)cn1` [Compound 835, N-{3-[2-(4-chloro-3-fluorophenoxy)acetamido]bicyclo[1.1.1]pentan-1-yl}-3-(1-methyl-1H-pyrazol-4-yl)-1,2-oxazole-5-carboxamide], the EC50 lay within 1000 to 2000 nM.
On to `Cc1nc(C(=O)NC23CC(NC(=O)COc4ccc(Cl)c(F)c4)(C2)C3)co1` [Compound 249, N-{3-[2-(4-chloro-3-fluorophenoxy)acetamido]bicyclo[1.1.1]pentan-1-yl}-2-methyl-1,3-oxazole-4-carboxamide], for which the EC50 was 50 to 250 nM.
For `Cc1cc(C(=O)NC23CC(NC(=O)COc4ccc(Cl)c(Cl)c4)(C2)C3)n(CC(C)(C)O)n1` [Compound 460, N-{3-[2-(3,4-dichlorophenoxy)acetamido]bicyclo[1.1.1]pentan-1-yl}-1-(2-hydroxy-2-methylpropyl)-3-methyl-1H-pyrazole-5-carboxamide] the value was over 2000 nM; for `O=C(COc1ccc(Cl)cc1)NC12CC(Nc3nc(-c4ccc(Cl)cc4)no3)(C1)C2` [Compound 284, 2-(4-chlorophenoxy)-N-(3-{[3-(4-chlorophenyl)-1,2,4-oxadiazol-5-yl]amino}bicyclo[1.1.1]pentan-1-yl)acetamide], 50 to 250 nM.
For `O=C(COc1ccc(Cl)c(F)c1)NC12CC(NC(=O)c3cc(-n4cncn4)ccn3)(C1)C2` [Compound 481, N-{3-[2-(4-chloro-3-fluorophenoxy)acetamido]bicyclo[1.1.1]pentan-1-yl}-4-(1H-1,2,4-triazol-1-yl)pyridine-2-carboxamide] the value was 1000 to 2000 nM; for `Cc1cnc(C(=O)NC23CCC(NC(=O)COc4ccc(Cl)c(F)c4)(CC2)[C@@H](O)C3)cn1` [Compound 666, N-{(3S)-4-[2-(4-chloro-3-fluorophenoxy)acetamido]-3-hydroxybicyclo[2.2.2]octan-1-yl}-5-methylpyrazine-2-carboxamide], under 50 nM.
For `O=C(COc1ccc(Cl)c(F)c1)NC12CC(NC(=O)c3cnc(C4CC4)cn3)(C1)C2` [Compound 266, N-{3-[2-(4-chloro-3-fluorophenoxy)acetamido]bicyclo[1.1.1]pentan-1-yl}-5-cyclopropylpyrazine-2-carboxamide], the EC50 lay in the range of 50 to 250 nM.
On to `O=C(COc1ccc(Cl)c(F)c1)NC12CC(NC(=O)c3cnc4ccccc4n3)(C1)C2` [Compound 482, N-{3-[2-(4-chloro-3-fluorophenoxy)acetamido]bicyclo[1.1.1]pentan-1-yl}quinoxaline-2-carboxamide], for which the EC50 is under 50 nM.
As for `O=C(COc1ccc(Cl)c(F)c1)NC12CC(NC(=O)c3ccc(OCCO)nc3)(C1)C2` [Compound 161, N-{3-[2-(4-chloro-3-fluorophenoxy)acetamido]bicyclo[1.1.1]pentan-1-yl}-6-(2-hydroxyethoxy)pyridine-3-carboxamide], the figure is 1000 to 2000 nM.
